Data from ChEMBL document CHEMBL3856191, “Structural modifications at the 6-position of thieno[2,3-d]pyrimidines and their effects on potency at FLT3 for treatment of acute myeloid leukemia” (Eur J Med Chem, 2016).

What was measured:
[1] = target: T1, Receptor-type tyrosine-protein kinase FLT3 (Homo sapiens, UniProt P36888); assay: biochemical; format: cell-based, Sf21
T1 sequence (P36888 whole entry): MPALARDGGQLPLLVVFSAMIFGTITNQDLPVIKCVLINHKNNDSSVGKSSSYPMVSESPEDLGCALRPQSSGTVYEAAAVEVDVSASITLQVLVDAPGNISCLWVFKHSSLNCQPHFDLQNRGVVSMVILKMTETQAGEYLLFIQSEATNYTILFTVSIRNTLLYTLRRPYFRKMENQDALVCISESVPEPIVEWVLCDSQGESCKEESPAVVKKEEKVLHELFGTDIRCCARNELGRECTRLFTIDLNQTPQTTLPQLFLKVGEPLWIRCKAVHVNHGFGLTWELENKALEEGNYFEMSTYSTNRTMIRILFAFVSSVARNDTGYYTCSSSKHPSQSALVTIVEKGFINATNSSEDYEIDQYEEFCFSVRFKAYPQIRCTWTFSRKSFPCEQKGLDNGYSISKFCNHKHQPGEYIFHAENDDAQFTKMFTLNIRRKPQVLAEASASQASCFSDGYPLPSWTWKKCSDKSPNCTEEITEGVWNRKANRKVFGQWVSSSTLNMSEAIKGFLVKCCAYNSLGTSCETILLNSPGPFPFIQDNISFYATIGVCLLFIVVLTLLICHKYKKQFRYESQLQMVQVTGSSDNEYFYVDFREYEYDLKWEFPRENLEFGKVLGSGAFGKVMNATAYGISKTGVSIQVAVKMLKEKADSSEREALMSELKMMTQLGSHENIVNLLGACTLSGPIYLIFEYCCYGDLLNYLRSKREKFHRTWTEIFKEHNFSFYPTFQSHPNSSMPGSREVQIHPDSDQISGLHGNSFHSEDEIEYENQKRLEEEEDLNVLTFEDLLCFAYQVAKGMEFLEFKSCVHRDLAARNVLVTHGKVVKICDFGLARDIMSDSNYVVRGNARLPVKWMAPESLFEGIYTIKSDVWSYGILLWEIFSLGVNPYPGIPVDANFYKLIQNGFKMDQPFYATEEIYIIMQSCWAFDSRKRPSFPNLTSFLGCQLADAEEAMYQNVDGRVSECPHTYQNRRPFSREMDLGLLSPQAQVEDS
Description: Inhibition of recombinant human FLT3 expressed in insect Sf21 cells preincubated for 15 mins followed by poly(Glu:Tyr) substrate addition for 30 mins in presence of [gamma-32P]ATP by TR-FRET assay

[2] = target: T2, Tyrosine-protein kinase ABL1 (Homo sapiens, UniProt P00519); assay: Inhibition of recombinant human ABL1 expressed in insect cells assessed as remaining activity at 10 uM preincubated for 15 mins followed by poly(Glu:Tyr) substrate addition for 30 mins in presence of [gamma-32P]ATP by […] assay
[3] = tested on: Tyrosine-protein kinase ABL1 (Homo sapiens), P00519 [T315I]; assay: Inhibition of human ABL T315I mutant assessed as remaining activity at 10 uM preincubated for 15 mins followed by poly(Glu:Tyr) substrate addition for 30 mins in presence of [gamma-32P]ATP by […] assay
[4] = AUC (0 to infinity) in Sprague-Dawley rat at 30 mg/kg, up to 24 hrs by LC/MS/MS analysis; format: ADME, organism-based; set-up: dose 30 mg/kg, time infinity; settings: in vivo
[5] = Clearance in Sprague-Dawley rat at 5 mg/kg, iv up to 24 hrs by LC/MS/MS analysis; format: ADME, organism-based; settings: in vivo
[6] = Oral bioavailability in Sprague-Dawley rat at 30 mg/kg up to 24 hrs by LC/MS/MS analysis; format: ADME, organism-based; settings: in vivo
[7] = target: Dual specificity mitogen-activated protein kinase kinase 6 (Homo sapiens) (UniProt P52564); assay: Inhibition of human MKK6 assessed as remaining activity at 10 uM in presence of [gamma-32P]ATP by […] assay
[8] = target: Aurora kinase B (Homo sapiens) (UniProt Q96GD4); assay: Inhibition of human AURORA B assessed as remaining activity at 10 uM preincubated for 15 mins followed by substrate addition for 30 mins in presence of [gamma-32P]ATP by […] assay
[9] = Cmax in Sprague-Dawley rat at 30 mg/kg, po by LC/MS/MS analysis; format: ADME, organism-based; set-up: dose 30 mg/kg, route oral; settings: in vivo
[10] = target: Tyrosine-protein kinase JAK2 (Homo sapiens) (UniProt O60674); assay: Inhibition of recombinant human JAK2 expressed in insect cells assessed as remaining activity at 10 uM preincubated for 15 mins followed by poly(Glu:Tyr) substrate addition for 30 mins in presence of [gamma-32P]ATP by […] assay
[11] = target: PI3-kinase p110-alpha/p85-alpha (Homo sapiens) (UniProt P27986+P42336); assay: Inhibition of PI3K P110alpha/p85alpha (unknown origin) assessed as remaining activity at 10 uM in presence of [gamma-32P]ATP by […] assay; format: protein-complex assay
[12] = target: Rho-associated protein kinase 2 (Homo sapiens) (UniProt O75116); assay: Inhibition of human recombinant ROCK-2 expressed in sf21 cells assessed as remaining activity at 10 uM preincubated for 15 mins followed by Long S6 kinase substrate addition measured after 30 mins in presence of [gamma-32P]ATP by […] assay
[13] = target: Platelet-derived growth factor receptor beta (Homo sapiens) (UniProt P09619); assay: Inhibition of recombinant human PDGFR-beta expressed in insect Sf21 cells assessed as remaining activity at 10 uM preincubated for 15 mins followed by poly(Glu:Tyr) substrate addition for 30 mins in presence of [gamma-32P]ATP by […] assay
[14] = target: Macrophage colony-stimulating factor 1 receptor (Homo sapiens) (UniProt P07333); assay: Inhibition of recombinant human FMS expressed in insect Sf21 cells assessed as remaining activity at 10 uM preincubated for 15 mins followed by poly(Glu:Tyr) substrate addition for 30 mins in presence of [gamma-32P]ATP by […] assay
[15] = Solubility of the compound in PBS at pH 7.4 after 1 hr by HPLC-MS analysis; format: physicochemical
[16] = target: Tyrosine-protein kinase JAK1 (Homo sapiens) (UniProt P23458); assay: Inhibition of human JAK1 assessed as remaining activity at 10 uM in presence of [gamma-32P]ATP by […] assay
[17] = target: Mitogen-activated protein kinase 11 (Homo sapiens) (UniProt Q15759); assay: Inhibition of human SAPK2b assessed as remaining activity at 10 uM in presence of [gamma-32P]ATP by […] assay
[18] = target: Tyrosine-protein kinase ZAP-70 (Homo sapiens) (UniProt P43403); assay: Inhibition of recombinant human ZAP-70 expressed in insect Sf21 cells assessed as remaining activity at 10 uM preincubated for 15 mins followed by poly(Glu:Tyr) substrate addition for 30 mins in presence of [gamma-32P]ATP by […] assay
[19] = target: T2, Tyrosine-protein kinase ABL1; assay: Inhibition of recombinant human ABL1 expressed in insect cells preincubated for 15 mins followed by poly(Glu:Tyr) substrate addition for 30 mins in presence of [gamma-32P]ATP by […] assay
[20] = Tmax in Sprague-Dawley rat at 30 mg/kg, po by LC/MS/MS analysis; format: ADME, organism-based; settings: in vivo

Chain of Tyrosine-protein kinase JAK1 (Homo sapiens) (P23458 whole entry): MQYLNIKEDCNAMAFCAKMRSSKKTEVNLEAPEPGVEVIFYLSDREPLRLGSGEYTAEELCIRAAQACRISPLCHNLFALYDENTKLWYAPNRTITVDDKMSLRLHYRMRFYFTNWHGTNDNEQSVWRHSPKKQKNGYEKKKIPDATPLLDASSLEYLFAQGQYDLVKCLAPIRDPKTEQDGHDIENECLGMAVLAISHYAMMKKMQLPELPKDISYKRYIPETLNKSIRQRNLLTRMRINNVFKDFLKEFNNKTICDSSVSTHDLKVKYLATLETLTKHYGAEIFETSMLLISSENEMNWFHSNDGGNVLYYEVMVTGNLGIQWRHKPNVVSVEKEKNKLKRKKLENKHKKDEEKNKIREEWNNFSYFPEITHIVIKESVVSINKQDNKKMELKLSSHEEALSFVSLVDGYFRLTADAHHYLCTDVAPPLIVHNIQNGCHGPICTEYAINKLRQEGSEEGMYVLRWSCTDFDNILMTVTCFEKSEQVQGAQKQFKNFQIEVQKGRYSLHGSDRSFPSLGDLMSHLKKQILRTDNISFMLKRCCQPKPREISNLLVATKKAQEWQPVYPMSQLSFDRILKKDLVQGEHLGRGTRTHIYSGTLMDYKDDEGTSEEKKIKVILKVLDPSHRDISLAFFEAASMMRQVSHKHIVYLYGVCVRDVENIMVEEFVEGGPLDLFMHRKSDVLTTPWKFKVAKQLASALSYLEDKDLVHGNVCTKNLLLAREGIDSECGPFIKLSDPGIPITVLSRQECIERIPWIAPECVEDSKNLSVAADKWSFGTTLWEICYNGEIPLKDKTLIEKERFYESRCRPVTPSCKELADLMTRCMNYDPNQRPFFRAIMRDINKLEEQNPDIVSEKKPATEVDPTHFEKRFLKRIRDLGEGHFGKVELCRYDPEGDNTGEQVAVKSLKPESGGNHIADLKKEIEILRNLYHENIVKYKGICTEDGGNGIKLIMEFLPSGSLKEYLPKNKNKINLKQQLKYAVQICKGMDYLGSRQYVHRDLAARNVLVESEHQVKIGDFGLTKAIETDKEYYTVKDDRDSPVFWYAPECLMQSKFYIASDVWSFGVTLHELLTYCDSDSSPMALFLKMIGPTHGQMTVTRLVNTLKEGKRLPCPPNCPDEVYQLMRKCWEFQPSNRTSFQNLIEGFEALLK
Chain of Dual specificity mitogen-activated protein kinase kinase 6 (Homo sapiens) (P52564 whole entry): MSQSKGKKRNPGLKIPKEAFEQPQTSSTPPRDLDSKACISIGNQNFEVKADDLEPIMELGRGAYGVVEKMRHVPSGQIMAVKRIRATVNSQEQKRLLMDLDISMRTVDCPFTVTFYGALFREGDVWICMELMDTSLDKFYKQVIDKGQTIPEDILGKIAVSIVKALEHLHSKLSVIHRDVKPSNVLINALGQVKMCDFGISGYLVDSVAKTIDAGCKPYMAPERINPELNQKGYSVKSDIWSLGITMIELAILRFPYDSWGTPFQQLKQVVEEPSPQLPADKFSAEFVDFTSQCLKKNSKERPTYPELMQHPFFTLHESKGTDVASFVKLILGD
Chain of Aurora kinase B (Homo sapiens) (Q96GD4 whole entry): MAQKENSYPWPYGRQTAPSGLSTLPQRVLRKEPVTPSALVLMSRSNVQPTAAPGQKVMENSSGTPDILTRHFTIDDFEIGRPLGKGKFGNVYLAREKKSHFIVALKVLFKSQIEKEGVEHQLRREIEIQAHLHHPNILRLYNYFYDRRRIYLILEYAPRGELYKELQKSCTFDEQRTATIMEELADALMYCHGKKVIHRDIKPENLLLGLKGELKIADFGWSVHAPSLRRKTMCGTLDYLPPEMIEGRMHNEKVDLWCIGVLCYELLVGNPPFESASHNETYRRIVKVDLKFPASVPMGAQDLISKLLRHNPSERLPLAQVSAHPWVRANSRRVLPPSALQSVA
Chain of Tyrosine-protein kinase ZAP-70 (Homo sapiens) (P43403 whole entry): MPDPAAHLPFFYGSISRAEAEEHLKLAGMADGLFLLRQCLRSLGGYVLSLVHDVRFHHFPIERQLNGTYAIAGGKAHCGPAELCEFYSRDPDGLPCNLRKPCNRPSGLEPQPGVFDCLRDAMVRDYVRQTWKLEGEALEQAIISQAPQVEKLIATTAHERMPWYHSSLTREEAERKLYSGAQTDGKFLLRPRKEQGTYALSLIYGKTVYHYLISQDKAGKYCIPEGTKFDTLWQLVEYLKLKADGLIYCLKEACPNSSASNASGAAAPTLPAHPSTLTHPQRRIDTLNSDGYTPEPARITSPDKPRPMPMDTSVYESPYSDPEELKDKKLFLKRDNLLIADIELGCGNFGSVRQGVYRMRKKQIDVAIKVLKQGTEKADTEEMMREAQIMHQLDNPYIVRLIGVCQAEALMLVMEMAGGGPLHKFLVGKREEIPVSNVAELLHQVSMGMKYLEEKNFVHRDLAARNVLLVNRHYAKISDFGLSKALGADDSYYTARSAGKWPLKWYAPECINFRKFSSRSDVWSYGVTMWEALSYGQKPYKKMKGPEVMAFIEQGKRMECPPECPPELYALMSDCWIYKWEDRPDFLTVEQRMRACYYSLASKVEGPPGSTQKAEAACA
Chain of Rho-associated protein kinase 2 (Homo sapiens) (O75116 whole entry, looked up): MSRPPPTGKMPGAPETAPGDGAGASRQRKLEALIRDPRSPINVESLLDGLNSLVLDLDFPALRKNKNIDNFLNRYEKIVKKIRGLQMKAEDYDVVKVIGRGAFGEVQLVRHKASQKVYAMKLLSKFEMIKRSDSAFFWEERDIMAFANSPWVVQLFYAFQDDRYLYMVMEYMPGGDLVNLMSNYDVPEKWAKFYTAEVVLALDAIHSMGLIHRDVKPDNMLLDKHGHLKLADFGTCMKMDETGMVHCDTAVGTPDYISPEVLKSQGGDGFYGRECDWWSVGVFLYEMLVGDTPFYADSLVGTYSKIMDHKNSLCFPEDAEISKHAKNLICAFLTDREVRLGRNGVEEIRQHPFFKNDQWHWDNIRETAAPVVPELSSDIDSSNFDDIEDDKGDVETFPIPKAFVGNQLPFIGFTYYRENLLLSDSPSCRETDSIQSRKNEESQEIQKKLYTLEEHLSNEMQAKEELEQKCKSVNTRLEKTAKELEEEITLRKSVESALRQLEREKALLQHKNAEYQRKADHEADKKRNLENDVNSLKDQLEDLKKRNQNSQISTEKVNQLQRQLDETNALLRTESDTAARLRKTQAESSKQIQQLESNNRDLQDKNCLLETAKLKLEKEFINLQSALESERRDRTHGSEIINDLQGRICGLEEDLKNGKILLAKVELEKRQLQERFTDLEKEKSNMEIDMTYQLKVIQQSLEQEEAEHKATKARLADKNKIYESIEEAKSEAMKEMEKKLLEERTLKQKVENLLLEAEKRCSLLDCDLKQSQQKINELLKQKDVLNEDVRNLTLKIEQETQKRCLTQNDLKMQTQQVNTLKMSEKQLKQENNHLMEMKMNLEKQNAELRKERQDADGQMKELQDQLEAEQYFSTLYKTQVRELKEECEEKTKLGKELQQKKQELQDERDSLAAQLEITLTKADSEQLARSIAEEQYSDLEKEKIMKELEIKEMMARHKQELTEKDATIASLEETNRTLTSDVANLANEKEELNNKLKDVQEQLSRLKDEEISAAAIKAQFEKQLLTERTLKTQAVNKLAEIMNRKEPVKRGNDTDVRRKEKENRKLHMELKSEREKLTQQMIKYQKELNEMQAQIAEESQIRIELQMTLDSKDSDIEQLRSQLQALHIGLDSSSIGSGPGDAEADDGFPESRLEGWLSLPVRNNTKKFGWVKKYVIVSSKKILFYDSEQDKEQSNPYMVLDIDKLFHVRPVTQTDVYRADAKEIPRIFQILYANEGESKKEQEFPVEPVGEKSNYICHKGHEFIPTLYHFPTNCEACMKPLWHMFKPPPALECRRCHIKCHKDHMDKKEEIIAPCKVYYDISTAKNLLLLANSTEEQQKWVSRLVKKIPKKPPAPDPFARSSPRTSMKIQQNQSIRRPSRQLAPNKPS
Chain of Tyrosine-protein kinase JAK2 (Homo sapiens) (O60674 whole entry): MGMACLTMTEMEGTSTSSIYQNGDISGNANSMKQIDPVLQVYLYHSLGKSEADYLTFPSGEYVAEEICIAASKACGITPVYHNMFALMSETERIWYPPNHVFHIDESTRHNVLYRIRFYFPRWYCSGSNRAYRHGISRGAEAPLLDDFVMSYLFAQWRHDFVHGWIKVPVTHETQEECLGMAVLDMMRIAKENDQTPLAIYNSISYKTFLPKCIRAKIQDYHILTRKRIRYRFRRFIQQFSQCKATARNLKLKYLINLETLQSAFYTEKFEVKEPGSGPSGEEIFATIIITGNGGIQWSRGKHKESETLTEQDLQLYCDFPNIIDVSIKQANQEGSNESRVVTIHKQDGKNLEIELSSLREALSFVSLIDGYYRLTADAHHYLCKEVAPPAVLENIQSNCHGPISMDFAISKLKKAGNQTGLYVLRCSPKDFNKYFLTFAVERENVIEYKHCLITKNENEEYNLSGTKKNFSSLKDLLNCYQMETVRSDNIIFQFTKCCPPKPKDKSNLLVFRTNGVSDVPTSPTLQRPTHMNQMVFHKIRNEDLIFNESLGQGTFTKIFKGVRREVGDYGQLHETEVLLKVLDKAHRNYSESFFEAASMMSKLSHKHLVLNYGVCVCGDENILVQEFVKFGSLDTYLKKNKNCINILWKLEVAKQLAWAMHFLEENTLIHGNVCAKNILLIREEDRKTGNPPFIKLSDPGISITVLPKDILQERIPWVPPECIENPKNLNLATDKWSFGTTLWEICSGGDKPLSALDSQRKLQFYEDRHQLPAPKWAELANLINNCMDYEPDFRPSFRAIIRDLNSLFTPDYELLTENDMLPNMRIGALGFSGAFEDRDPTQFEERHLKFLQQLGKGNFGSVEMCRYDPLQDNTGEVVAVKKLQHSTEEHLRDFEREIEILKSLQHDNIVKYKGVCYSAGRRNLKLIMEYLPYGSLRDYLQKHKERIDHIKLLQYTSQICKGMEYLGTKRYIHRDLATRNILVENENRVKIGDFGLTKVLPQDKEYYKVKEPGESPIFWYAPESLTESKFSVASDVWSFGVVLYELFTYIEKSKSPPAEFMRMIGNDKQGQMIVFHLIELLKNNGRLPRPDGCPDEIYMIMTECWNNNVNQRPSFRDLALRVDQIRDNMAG

In the case of CNCCOc1ccc(-c2sc3nc(-c4cccs4)nc(NN4C(=O)C=C(C)C4=O)c3c2C)cc1.Cl, the IC50 [1] is reported as 0.00803 µM, the Activity [2] is reported as 11% and the Activity [3] is reported as 44%. It also gave an AUC(0-inf) [4] of 2170 ng·h/mL, a clearance [5] of 36.6 mL/min/kg and a bioavailability [6] of 17%. The Activity [7] was 102%, the Activity [8] was 42% and the Cmax [9] was 420 ng/mL. It also gave an Activity [10] of 99%, an Activity [11] of 96% and an Activity [12] of 93%. It also gave an Activity [13] of 88%, an Activity [14] of 78% and a solubility at 1 h [15] of 2.96 µM. It also gave an Activity [16] of 111%, an Activity [17] of 90% and an Activity [18] of 101%. It also gave an IC50 [19] of 2.88 µM and a Tmax [20] of 15 min.
